Measured values as given in US12264163B2, “Compounds and methods for treating fibrotic pathologies” (Mayo Foundation for Medical Education and Research, priority 2019, dated 2025).

Tests used:
YAP/TAZ [1] = assay: YAP/TAZ localization in lung alveolar epithelial and endothelial cells; format: cell-based, human; conditions: pulmonary (alveolar) epithelial and endothelial cells
Experimental: N=4 (****p<0.0001 vs. 0.1% DMSO vehicle control)
N=3 (****p<0.0001 vs. 0.1% DMSO vehicle control).
Human lung fibroblasts and alveolar epithelial cells are treated with MS-9 and influence on YAP/TAZ localization is determined.
Immunofluorescence Microscopy: Cells were plated into 96 well plates (Corning 3603) in their specific growth media and allowed to attach (8 hours). Media was then exchanged for the indicated conditions for each experiment. Cells were fixed in 3.7% formalin (Sigma-Aldrich), permeabilized in 0.25% Triton X-100 (Sigma-Aldrich) and then blocked with 1% BSA for 1 h. Cells or tissue sections were incubated overnight with mouse monoclonal antibody against αSMA (Sigma-Aldrich F3777), and/or a rabbit monoclonal antibody against YAP/TAZ (Cell Signaling D24E4) diluted 1:200 in PBS with 1% BSA. […] For scoring αSMA positive cells (FIG. 12), an observer blinded to the treatment conditions counted αSMA-positive cells using a visual threshold for bright fibrous staining; a minimum of 200 cells was counted for each condition. YAP/TAZ localization was quantified (FIGS. 6-10, 24-26, and 29-30) using Gen5 (Biotek) software. […] Quantification of double positive (YAP/TAZ and αSMA) cells from lung tissue sections (FIG. 17-21) was performed similarly; however separate thresholds were established for both YAP/TAZ and αSMA. A minimum of 4000 cells was quantified for each mouse.

cAMP = cAMP assay (cAMP-Glo) in fibroblasts; format: cell-based, human; conditions: IPF patient-derived fibroblasts, 20 minutes, 10 μM
Experimental: FIG. 9 contains a bar graph showing cAMP measured in IPF patient-derived fibroblasts treated for 20 minutes with DHX (10 μM)+/−SCH 39166 (3 μM). N=3 (**p<0.01 vs. 0.1% DMSO vehicle control).
N=3, IMR-90 lung fibroblasts.
cAMPAssay: IPF patient derived fibroblasts were plated in EMEM containing 10% FBS overnight. […] 20 minutes prior to cell lysis media was removed and cells were treated with “induction buffer” containing nonselective phosphodiesterase inhibitors and the indicated concentration of compound(s). Luminescence was measured on a Flexstation 3 (Molecular Devices) plate reader.

YAP/TAZ [2] = assay: YAP/TAZ nuclear localization in IPF patient-derived lung fibroblasts treated with dopaminergic agonists; format: cell-based, human; conditions: 10 μM, 2 hours
Outline: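 Fibroblasts from IPF patients (N=4 patient samples) were exposed to dopaminergic agonists at 10 μM for 2 h before fixation. Cells were immunostained for YAP/TAZ with DAPI counterstain and imaged at 4×. Percent nuclear YAP/TAZ localization was quantified by automated image analysis.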

CTGF, COL1A1, ACTA2, FN1 = assay: Profibrotic / matrix remodeling gene expression by qPCR in fibroblasts; format: cell-based, human
Experimental: Genes which encode Connective tissue growth factor (CTGF), Collagen I (COL1A1), αSMA (ACTA2), and Fibronectin (FN1) are reduced by 24 hour treatment with DHX (10 μM), +/−SCH 39166 (3 μM). N=3 (****p<0.0001, ***p<0.001, *p<0.05 vs. 0.1% DMSO vehicle control)
IPF patient-derived fibroblasts cultured in media containing 0.1% FBS were stimulated for 24 hours with 2 ng/mL TGFβ and 10 μM DHX prior to RNA isolation. Genes which encode for ECM crosslinking: transglutaminase 2 (TGM2), lysyl oxidase and lysyl oxidase-like enzymes (LOX and LOXL1-4), ECM degradation: uPA (PLAU), tPa (PLAT), cathepsin K (CTSK), and matrix metalloprotease-14 (MMP14) and ECM protease inhibitors: metalloprotease inhibitor 3 (TIMP3), and plasminogen activator inhibitor 1 (SERPINE1) were measured. N=3. (****p<0.0001, ***p<0.001, **p<0.01, *p<0.05 vs. 0.1% DMSO vehicle control non-TGFβ treated), (++++p<0.0001, ++p<0.01, +p<0.05 vs. 0.10% DMSO vehicle control TGFβ treated).
For all other in vitro experiments, cells were treated as indicated prior to RNA isolation using RNeasy Plus Mini Kit (Qiagen) according to manufacturer's instructions. Isolated RNA (250 ng) was then used to synthesize cDNA using SuperScript VILO (Invitrogen). Quantitative PCR was performed using FastStart Essential DNA Green Master (Roche) and analyzed using a LightCycler 96 (Roche). Data are expressed as a fold change by ΔΔCt relative to GAPDH. For in vivo experiments, tissue was immediately frozen, and stored at −80° C. RNA isolation, cDNA synthesis, and qPCR analysis were performed as above.

D1 receptor = conditions: cited from earlier work

Oc1cc2c(cc1O)[C@H]1c3ccccc3CN[C@@H]1CC2 (racemic) [Dihydrexidine]
YAP/TAZ localization in epithelial / endothelial cells (YAP/TAZ [1]): no effect on YAP/TAZ localization | cAMP (cAMP): elevated cAMP | Nuclear localization (% of total cells) (YAP/TAZ [2]; IPF-1 patient fibroblasts): 13.22 % of total cells | Nuclear localization (% of total cells) (YAP/TAZ [2]; IPF-2 patient fibroblasts): 21.79 % of total cells | Nuclear localization (% of total cells) (YAP/TAZ [2]; IPF-3 patient fibroblasts): 27.63 % of total cells | Nuclear localization (% of total cells) (YAP/TAZ [2]; IPF-4 patient fibroblasts): 21.08 % of total cells | expression of matrix crosslinking, protease inhibitor and matrix degradation genes (CTGF, COL1A1, ACTA2, FN1; IPF patient derived fibroblasts, 2 ng/mL TGFβ + 10 μM DHX, 24 hours): reversed the effects of TGFβ | expression of profibrotic genes CTGF, COL1A1, ACTA2, FN1 (CTGF, COL1A1, ACTA2, FN1; IPF patient-derived lung fibroblasts, 10 μM, 24 hour): reduced | profibrotic gene expression and extracellular matrix accumulation with constitutively active TAZ (CTGF, COL1A1, ACTA2, FN1; NIH-3T3 cells expressing doxycycline-inducible TAZ4SA): no effect on profibrotic gene expression or extracellular matrix accumulation | profibrotic gene expression in human dermal fibroblasts (CTGF, COL1A1, ACTA2, FN1; human dermal fibroblasts, 24 hours +/− 2 ng/mL TGFβ): blocks profibrotic gene expression | efficacy at elevating cAMP (D1 receptor) (D1 receptor): full magnitude cAMP response
